The results in this text go back to patent US8871753B2, “Macrocyclic compounds and their use as kinase inhibitors” (Incyte Corporation, priority 2008, dated 2014).

Counter-ions that a name gives are not always drawn. Like-named read-outs stand apart in the source and are kept apart here.

Common to all, as to type: biochemical
Test [1] concerns the target T1, human JAK2 (a.a. 828-1132) (Homo sapiens, UniProt O60674).
T1 construct: JAK2 (a.a. 828-1132); His tag (N); made in house; host or cells: insect cells (baculovirus)
The experiment in a line: In vitro JAK kinase assay (HTRF, phosphorylation of a biotinylated peptide), JAK2. The procedure, abridged:
(§1)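 Kinase activity was measured as phosphorylation of a biotinylated peptide, with ATP at 90 μM for JAK1, 30 μM for JAK2 and 3 μM for JAK3. Reactions ran 1 hr at room temperature, were stopped with EDTA plus SA-APC and Eu-Py20, and were read by HTRF after 40 minutes of antibody binding.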

For test [2], the target named is T2, human JAK3 (a.a. 781-1124) (Homo sapiens, UniProt P52333).
T2 construct: JAK3 (a.a. 781-1124); His tag (N); made in house; host or cells: insect cells (baculovirus)
The experiment in a line: In vitro JAK kinase assay (HTRF, phosphorylation of a biotinylated peptide), JAK3. An outline of the steps: as §1
For orientation: TR-FRET usually uses a lanthanide donor and a delayed reading to cut background.

The target in another test is TYK2 (Homo sapiens, UniProt P29597). Nature of the test: TYK2 kinase inhibition (Table A1).
The target in test [3] is T3, human JAK1 (a.a. 837-1142) (Homo sapiens, UniProt P23458).
T3 construct: human JAK1 (a.a. 837-1142); His tag (N); made in house; host or cells: insect cells (baculovirus)
The experiment in a line: In vitro JAK kinase assay (HTRF, phosphorylation of a biotinylated peptide), JAK1. The settings on record: read-out: JAK1 IC50. The procedure, abridged:
as §1

For test [4], the target named is T4, Recombinant Human Anaplastic Lymphoma Kinase (Homo sapiens, UniProt Q9UM73).
T4 construct: purchased Invitrogen, Carlsbad, Calif
Nature of the test: ALK HTRF kinase assay. An outline of the steps: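 Recombinant human ALK phosphorylated a biotinylated synthetic peptide. Phosphotyrosine was detected by TR-FRET between a Eu-labelled anti-phosphotyrosine antibody and streptavidin-allophycocyanin. IC50 values came from fitting signal against inhibitor concentration to a four-parameter logistic equation with variable Hill slope.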

Where [5] appears, read: method AA1 (30 μM ATP) or AA2 (1000 μM ATP), not stated per value.
Setting [6] is: method AA1 (3 μM ATP) or AA2 (1000 μM ATP), not stated per value.
The mark [7] stands for this setting: method AA1 (90 μM ATP) or AA2 (1000 μM ATP), not stated per value.
The mark [8] stands for this setting: compound at 500 nM or 1 mM, 90 μM ATP.
Where [9] appears, read: percentage inhibition of the example compound at a concentration of 500 nM or 1 mM (not specified which).
Setting [10] is: Table B1, cells without percent sign.

T2 sequence (P52333 781-1124): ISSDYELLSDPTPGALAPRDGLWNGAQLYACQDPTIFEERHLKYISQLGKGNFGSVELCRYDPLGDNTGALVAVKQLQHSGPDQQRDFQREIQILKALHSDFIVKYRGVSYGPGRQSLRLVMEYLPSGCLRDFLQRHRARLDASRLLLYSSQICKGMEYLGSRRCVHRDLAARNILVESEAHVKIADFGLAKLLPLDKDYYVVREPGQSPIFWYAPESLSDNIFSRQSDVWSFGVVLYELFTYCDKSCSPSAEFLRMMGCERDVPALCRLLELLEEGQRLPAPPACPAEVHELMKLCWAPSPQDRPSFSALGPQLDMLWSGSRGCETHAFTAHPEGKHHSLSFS
T1 sequence (O60674 828-1132): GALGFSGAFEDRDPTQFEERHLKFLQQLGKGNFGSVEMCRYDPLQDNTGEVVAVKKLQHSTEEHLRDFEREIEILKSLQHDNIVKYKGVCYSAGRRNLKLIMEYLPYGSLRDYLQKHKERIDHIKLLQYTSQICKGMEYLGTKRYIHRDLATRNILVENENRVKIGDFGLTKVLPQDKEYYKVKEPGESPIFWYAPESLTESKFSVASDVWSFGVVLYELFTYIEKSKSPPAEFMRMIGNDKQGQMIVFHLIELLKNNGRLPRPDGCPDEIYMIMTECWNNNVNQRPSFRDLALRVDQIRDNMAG
Chain of TYK2 (P29597 whole entry): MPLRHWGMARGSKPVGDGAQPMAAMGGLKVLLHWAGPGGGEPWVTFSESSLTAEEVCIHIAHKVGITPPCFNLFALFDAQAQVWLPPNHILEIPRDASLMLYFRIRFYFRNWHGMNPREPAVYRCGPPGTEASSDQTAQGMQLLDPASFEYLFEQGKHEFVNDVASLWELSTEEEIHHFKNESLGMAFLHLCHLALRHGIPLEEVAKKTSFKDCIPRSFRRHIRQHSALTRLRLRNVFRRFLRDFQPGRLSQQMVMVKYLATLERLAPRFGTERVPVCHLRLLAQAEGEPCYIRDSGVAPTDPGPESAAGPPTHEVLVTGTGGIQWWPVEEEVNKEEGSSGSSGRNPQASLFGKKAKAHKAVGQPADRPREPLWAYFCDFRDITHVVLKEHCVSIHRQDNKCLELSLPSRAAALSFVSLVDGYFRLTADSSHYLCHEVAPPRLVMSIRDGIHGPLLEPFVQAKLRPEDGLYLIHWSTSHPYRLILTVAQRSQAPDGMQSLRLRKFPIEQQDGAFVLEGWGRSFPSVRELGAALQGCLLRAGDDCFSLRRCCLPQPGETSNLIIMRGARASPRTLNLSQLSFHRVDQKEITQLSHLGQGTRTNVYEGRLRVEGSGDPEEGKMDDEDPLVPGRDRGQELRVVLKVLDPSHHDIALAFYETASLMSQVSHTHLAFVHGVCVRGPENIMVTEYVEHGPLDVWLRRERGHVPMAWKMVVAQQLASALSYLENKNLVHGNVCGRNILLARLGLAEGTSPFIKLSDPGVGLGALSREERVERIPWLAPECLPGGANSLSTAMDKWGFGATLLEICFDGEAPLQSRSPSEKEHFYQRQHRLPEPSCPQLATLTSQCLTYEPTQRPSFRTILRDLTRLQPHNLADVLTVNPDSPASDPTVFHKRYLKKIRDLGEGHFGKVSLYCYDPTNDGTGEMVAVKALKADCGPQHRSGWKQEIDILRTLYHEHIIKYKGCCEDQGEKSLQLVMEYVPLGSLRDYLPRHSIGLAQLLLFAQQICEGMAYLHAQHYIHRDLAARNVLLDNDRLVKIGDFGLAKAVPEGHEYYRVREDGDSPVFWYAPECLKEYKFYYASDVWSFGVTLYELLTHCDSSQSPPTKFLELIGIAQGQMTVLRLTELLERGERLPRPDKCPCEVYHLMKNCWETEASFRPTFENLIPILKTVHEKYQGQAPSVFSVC
T3 sequence (P23458 849-1154): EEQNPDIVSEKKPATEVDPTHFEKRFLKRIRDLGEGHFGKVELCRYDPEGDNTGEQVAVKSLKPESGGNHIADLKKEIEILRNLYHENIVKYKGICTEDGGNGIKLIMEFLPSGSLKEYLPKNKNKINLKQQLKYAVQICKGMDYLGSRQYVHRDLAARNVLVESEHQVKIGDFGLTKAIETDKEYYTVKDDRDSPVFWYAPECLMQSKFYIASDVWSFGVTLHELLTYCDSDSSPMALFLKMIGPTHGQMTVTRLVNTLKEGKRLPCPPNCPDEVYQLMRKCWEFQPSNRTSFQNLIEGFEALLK
T4 sequence (Q9UM73 19-1620): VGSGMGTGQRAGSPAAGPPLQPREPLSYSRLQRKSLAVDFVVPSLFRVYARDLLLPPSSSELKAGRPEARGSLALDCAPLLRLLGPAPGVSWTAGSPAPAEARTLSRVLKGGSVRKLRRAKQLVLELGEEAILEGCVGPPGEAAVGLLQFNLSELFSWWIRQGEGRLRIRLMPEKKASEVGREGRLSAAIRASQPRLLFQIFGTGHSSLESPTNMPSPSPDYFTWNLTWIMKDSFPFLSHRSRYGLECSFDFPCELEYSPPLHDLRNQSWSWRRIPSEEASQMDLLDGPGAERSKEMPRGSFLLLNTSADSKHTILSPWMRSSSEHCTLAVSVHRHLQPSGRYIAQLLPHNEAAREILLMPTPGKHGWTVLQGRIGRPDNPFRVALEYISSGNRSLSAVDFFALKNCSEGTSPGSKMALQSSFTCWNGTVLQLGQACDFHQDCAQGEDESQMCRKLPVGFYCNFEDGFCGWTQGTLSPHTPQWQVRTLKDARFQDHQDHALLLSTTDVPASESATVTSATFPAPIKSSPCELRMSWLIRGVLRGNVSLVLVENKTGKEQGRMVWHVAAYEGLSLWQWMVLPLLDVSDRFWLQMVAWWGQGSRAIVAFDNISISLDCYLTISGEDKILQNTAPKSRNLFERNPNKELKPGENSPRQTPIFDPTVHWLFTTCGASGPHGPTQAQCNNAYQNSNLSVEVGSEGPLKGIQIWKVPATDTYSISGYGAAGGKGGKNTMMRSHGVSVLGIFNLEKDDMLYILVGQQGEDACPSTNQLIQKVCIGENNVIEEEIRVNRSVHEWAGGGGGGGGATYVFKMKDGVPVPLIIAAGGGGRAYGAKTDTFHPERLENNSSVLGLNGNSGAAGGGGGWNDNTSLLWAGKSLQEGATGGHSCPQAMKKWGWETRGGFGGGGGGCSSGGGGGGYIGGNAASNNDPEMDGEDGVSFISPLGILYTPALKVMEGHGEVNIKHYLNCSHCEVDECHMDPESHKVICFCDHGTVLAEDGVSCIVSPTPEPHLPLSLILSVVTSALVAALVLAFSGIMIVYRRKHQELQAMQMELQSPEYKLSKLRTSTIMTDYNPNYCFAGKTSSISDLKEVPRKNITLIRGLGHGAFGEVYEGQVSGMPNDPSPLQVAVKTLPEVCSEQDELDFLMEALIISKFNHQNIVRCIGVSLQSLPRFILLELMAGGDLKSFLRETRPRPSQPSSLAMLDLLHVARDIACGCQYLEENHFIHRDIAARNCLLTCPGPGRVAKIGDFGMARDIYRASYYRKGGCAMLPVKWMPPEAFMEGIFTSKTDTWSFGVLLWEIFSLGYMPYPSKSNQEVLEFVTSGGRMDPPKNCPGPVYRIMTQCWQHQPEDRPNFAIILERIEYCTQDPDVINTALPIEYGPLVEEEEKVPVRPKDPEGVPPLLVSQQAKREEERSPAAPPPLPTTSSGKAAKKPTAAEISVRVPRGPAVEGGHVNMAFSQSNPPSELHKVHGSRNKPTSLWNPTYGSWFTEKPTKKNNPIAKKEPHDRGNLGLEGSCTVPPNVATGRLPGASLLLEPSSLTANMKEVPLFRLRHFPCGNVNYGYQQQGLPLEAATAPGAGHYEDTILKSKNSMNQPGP

What is called IC50 is the concentration at which inhibition is half-maximal. With `CS(=O)(=O)c1ccc(-c2cc3cc(c2)Nc2ncc(Cl)c(n2)Nc2cccc(c2)OCC3)cc1` [Example D29, 6-Chloro-19-[4-(methylsulfonyl)phenyl]-14-oxa-2,4,8,23-tetraazatetracyclo[15.3.1.1(3,7).1(9,13)]tricosa-1(21),3(23),4,6,9(22),10,12,17,19-nonaene trifluoroacetate], the IC50 in test [1] (Table D1) was 0.5 nM; in test [2] (Table D1), 14 nM; on TYK2 (Table D1), 3.4 nM; in test [3] (Table D1), 2 nM; in test [4] (Table D1, 90 μM ATP) it was 238 nM.
`Clc1cnc2nc1Nc1cccc(c1)OCCc1cc(cc(-c3ccncc3)c1)N2` [Example D25, 6-Chloro-19-pyridin-4-yl-14-oxa-2,4,8,23-tetraazatetracyclo[15.3.1.1(3,7).1(9,13)]tricosa-1(21),3(23),4,6,9(22),10,12,17,19-nonaene bis(trifluoroacetate)]: the IC50 in test [1] (Table D1) stood at 0.3 nM; in test [2] (Table D1), 8.8 nM; on TYK2 (Table D1), 2.1 nM; in test [3] (Table D1) it was 1.1 nM; in test [4] (Table D1, 90 μM ATP), 110 nM.
`O=C(Nc1ccc2cc1CCc1cccc(c1)Nc1ncc(Cl)c(n1)N2)[C@@H]1CCN(C(=O)Nc2ccccc2)C1` [Example A54, (3R)—N(3)-[6-Chloro-2,4,8,22-tetraazatetracyclo[14.3.1.1(3,7).1(9,13)]docosa-1(20),3(22),4,6,9(21),10,12,16,18-nonaen-12-yl]-N(1)-phenylpyrrolidine-1,3-dicarboxamide trifluoroacetate]: the IC50 in test [1] (setting [5]) amounted to 2.9 nM; in test [2] (setting [6]), 3.5 nM; at TYK2, 12 nM; in test [3] (setting [7]) it was 4 nM. The “ALK % of inhibition at a concentration of 500 nM or 1 mM” value (from here on “ALK % of inhibition”) in test [4] (setting [8]) came out at 54%.
For `CNC(=O)Nc1ccc2cc1CCc1cccc(c1)Nc1ncc(Cl)c(n1)N2` [Example B114, N-[6-Chloro-2,4,8,22-tetraazatetracyclo[14.3.1.1(3,7).1(9,13)]docosa-1(20), 3(22),4,6,9(21),10,12,16,18-nonaen-12-yl]-N′-methylurea trifluoroacetate], the IC50 turned out to be 2.9 nM in test [1] (Table B1), 13 nM in test [2] (Table B1), 5.4 nM on TYK2 (Table B1) and 0.81 nM in test [3] (Table B1). In addition, the “ALK % of inhibition” value in test [4] (compound at a concentration of 500 nM or 1 mM (not specified), cells shown as percentage) is 24%.
With `CN(Cc1ccc2cc1CCc1cncc(c1)Nc1ncc(Cl)c(n1)N2)CC1CCN(C(=O)Nc2cccnc2)CC1` [Example B348, 4-{[{[6-Chloro-2,4,8,18,22-pentaazatetracyclo[14.3.1.1(3,7).1(9,13)]docosa-1(20),3(22),4,6,9(21),10,12,16,18-nonaen-12-yl]methyl}(methyl)amino]methyl}-N-pyridin-3-ylpiperidine-1-carboxamide tetrakis(trifluoroacetate)], the IC50 was 45 nM in test [1] (Table B1), > 400 nM in test [2] (Table B1), > 400 nM against TYK2 (Table B1) and 3.4 nM in test [3] (Table B1). Moreover, the “ALK % of inhibition” value in test [4] (setting [9]) is 47%.
Consider `CC(=O)N1Cc2cccc(c2)Nc2ncc(Cl)c(n2)Nc2cccc(c2)C1` [Example D74, 15-Acetyl-6-chloro-2,4,8,15,23-pentaazatetracyclo[15.3.1.1(3,7).1(9,13)]tricosa-1(21),3(23),4,6,9(22),10,12,17,19-nonaene trifluoroacetate], for which the IC50 in test [1] (Table D1) is 83 nM; in test [2] (Table D1) it was 225 nM; against TYK2 (Table D1), 343 nM; in test [3] (Table D1), 160 nM; in test [4] (Table D1, 90 μM ATP), > 1000 nM.
As to `Cc1oncc1S(=O)(=O)N1CCC(CC(=O)Nc2ccc3cc2CCc2cccc(c2)Nc2ncc(Cl)c(n2)N3)CC1` [Example A210, N-[6-Chloro-2,4,8,22-tetraazatetracyclo[14.3.1.1(3,7).1(9,13)]docosa-1(20),3(22),4,6,9(21),10,12,16,18-nonaen-12-yl]-2-{1-[(5-methylisoxazol-4-yl)sulfonyl]piperidin-4-yl}acetamide trifluoroacetate], the IC50 was 90 nM in test [1] (setting [5]), > 200 nM in test [2] (setting [6]), > 200 nM against TYK2 and 35 nM in test [3] (setting [7]). Besides, the “ALK % of inhibition” value in test [4] (setting [8]) is 20%.
For `Clc1cnc2nc1Nc1cccc(c1)COCc1cccc(c1)N2` [Example D21, 6-Chloro-15-oxa-2,4,8,23-tetraazatetracyclo[15.3.1.1(3,7).1(9,13)]tricosa-1(21),3(23),4,6,9(22),10,12,17,19-nonaene trifluoroacetate], the IC50 in test [1] (Table D1) was 13 nM; in test [2] (Table D1), 45 nM; at TYK2 (Table D1), 27 nM; in test [3] (Table D1) it was 8.1 nM; in test [4] (Table D1, 90 μM ATP) it was 984 nM.
Consider `COc1cccc(C(=O)Nc2ccc3cc2CCc2cccc(c2)Nc2ncc(Cl)c(n2)N3)c1` [Example B66, N-[6-Chloro-2,4,8,22-tetraazatetracyclo[14.3.1.1(3,7).1(9,13)]docosa-1(20), 3(22),4,6,9(21),10,12,16,18-nonaen-12-yl]-3-methoxybenzamide trifluoroacetate], for which the IC50 stood at 1.6 nM in test [1] (Table B1); 13 nM in test [2] (Table B1); 4.5 nM against TYK2 (Table B1); 3 nM in test [3] (Table B1); 310 nM in test [4] (setting [10]).
Turning to `O=C(Nc1ccc2cc1CCc1cncc(c1)Nc1ncc(Cl)c(n1)N2)N1CCN(c2cccc(Cl)c2)CC1` [Example B306, N-[6-Chloro-2,4,8,18,22-pentaazatetracyclo[14.3.1.1(3,7).1(9,13)]docosa-1(20),3(22),4,6,9(21),10,12,16,18-nonaen-12-yl]-4-(3-chlorophenyl)piperazine-1-carboxamide tris(trifluoroacetate)], the half-inhibitory concentration (IC50) in test [1] (Table B1) was 265 nM; in test [2] (Table B1), > 400 nM; on TYK2 (Table B1), 43 nM; in test [3] (Table B1) it was 27 nM. Moreover, the “ALK % of inhibition” value in test [4] (setting [9]) was determined as 72%.
Regarding `CC(=O)Nc1ccc2cc1CCc1cccc(c1)Nc1ncc(Cl)c(n1)N2` [Example B26, N-[6-Chloro-2,4,8,22-tetraazatetracyclo[14.3.1.1(3,7).1(9,13)]docosa-1(20), 3(22),4,6,9(21),10,12,16,18-nonaen-12-yl]acetamide trifluoroacetate], the IC50 was 4.1 nM in test [1] (Table B1); 7.4 nM in test [2] (Table B1); 15 nM against TYK2 (Table B1); 6.5 nM in test [3] (Table B1); 1100 nM in test [4] (setting [10]).
On to `O=C(CC1CCN(C(=O)c2ccc(F)cc2F)CC1)Nc1ccc2cc1CCc1cncc(c1)Nc1ncc(Cl)c(n1)N2` [Example A194, N-[6-Chloro-2,4,8,18,22-pentaazatetracyclo[14.3.1.1(3,7).1(9,13)]docosa-1(20),3(22),4,6,9(21),10,12,16,18-nonaen-12-yl]-2-[1-(2,4-difluorobenzoyl)piperidin-4-yl]acetamide bis(trifluoroacetate)], for which the IC50 in test [1] (setting [5]) is 150 nM; in test [2] (setting [6]) it was > 200 nM; against TYK2, > 200 nM; in test [3] (setting [7]) it was 7.3 nM. Besides, the “ALK % of inhibition” value in test [4] (setting [8]) was 31%.
With `COC(=O)c1ccc2cc1CCc1cccc(c1)Nc1ncc(Cl)c(n1)N2` [Example B22, Methyl 6-chloro-2,4,8,22-tetraazatetracyclo[14.3.1.1(3,7).1(9,13)]docosa-1(20),3(22),4,6,9(21),10,12,16,18-nonaene-12-carboxylate trifluoroacetate], the IC50 in test [1] (Table B1) was found to be 11 nM; in test [2] (Table B1), 104 nM; against TYK2 (Table B1) it was 41 nM; in test [3] (Table B1) it was 144 nM; in test [4] (setting [10]), 1440 nM.
